Entries after “also recorded” stand apart in the source; their conditions may differ.
Tests used:
human RAD51 [1] = biological target: T1, human RAD51 (Homo sapiens, UniProt Q06609); assay: Fluorescence polarization assay for RAD51 filament formation on fluorescein-labeled oligonucleotide; assay type: biochemical
T1 sequence (Q06609 1-339): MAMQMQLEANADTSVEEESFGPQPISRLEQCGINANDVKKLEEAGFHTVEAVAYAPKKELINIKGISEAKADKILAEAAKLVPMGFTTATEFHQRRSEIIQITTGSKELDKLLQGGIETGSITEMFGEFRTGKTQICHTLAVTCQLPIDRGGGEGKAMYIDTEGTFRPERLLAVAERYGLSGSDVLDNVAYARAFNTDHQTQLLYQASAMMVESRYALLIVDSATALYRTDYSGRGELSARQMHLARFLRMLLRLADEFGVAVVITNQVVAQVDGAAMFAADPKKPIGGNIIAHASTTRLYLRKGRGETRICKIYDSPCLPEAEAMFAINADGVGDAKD
Procedure: FIGS. 2A-2B. FIG. 2A, top: Schematic of protein filament formation monitored in vitro using a fluorescence polarization assay. FIG. 2A, bottom: Purified RAD51 protein (wild type or mutant F86E) were serially diluted. RecA (New England Biolabs) was used as a positive control. Proteins were added to a 5′terminal fluorescein conjugated oligonucleotide (45 bases of dT) at a 1 μM nucleotide concentration. The mixture was incubated at 37° C. for 30 minutes in 384-well plates containing a reaction buffer (30 mM Tris/acetate pH 7.5, 10 mM Mg^2+/acetate, 2 mM ATP, 0.1 mM DTT, 0.5 μM BSA). Fluorescence polarization was measured with a plate reader (filters: excitation=485 nm, emission=510 nm). FIG. 2B, top: Varying concentrations of 5′terminal fluorescein conjugated oligonucleotide were used to determine the threshold RAD51 concentration.
The assay of Example 2 was used to serve in the screen of a small-molecule chemical library for compounds that stimulate RAD51 filament formation. […] Multiple positive (+RAD51) and negative […] controls were tested, and these readings were tested using the statistical method described by Zhang et al. (1999), which evaluates the suitability of an HT assay. The assay as described has a Z-factor of 0.82, validating it as an excellent assay for HT screening.
The assay of Example 2 was used to serve in the screen of a small-molecule chemical library for compounds that inhibit RAD51 filament formation. […] FP readings were very reproducible with reaction volumes in the 10-100 μl range, and 100 μl was typically used. […] The assay was optimized such that the positive control FP reading was ˜50% of maximal reaction saturation; the RAD51 protein concentration was 0.3 uM and the fluorescein-labeled DNA is at 0.1 uM (nucleotide concentration). […] The average FP readings for positive control and negative control are 344 mP (SD=13.4) and 27 mP (SD=5.3), respectively. These readings were tested using the statistical method described by Zhang et al, which evaluates the suitability of an HT assay (Zhang et al., 1999). […]

human RAD51 [2] = biological target: T1, human RAD51; assay: Strand invasion (D-loop) assay; assay type: biochemical; conditions: 0.8 μM RAD51; buffer that does not support joint molecule formation (1 mM ATP, 1 mM MgOAc)
Procedure: FIGS. 6A-6B. Schematic of the strand invasion (D-loop) assay.
(§1) Conditions with scRAD51 additionally contained 110 nM scRAD54.

yeast DMC1 = biological target: T2, yeast DMC1 (Saccharomyces cerevisiae, UniProt P25453); assay: Strand invasion (D-loop) assay with DMC1 in place of RAD51; assay type: biochemical
T2 sequence (P25453 1-334): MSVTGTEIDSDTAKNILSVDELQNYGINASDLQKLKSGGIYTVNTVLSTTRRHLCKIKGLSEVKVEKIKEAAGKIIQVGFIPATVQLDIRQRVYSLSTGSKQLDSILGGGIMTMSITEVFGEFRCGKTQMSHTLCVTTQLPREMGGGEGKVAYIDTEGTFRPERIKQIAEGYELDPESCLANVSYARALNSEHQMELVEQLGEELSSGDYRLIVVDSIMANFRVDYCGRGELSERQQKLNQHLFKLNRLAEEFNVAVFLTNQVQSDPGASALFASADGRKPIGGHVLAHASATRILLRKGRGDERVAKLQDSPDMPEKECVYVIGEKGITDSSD
Procedure: as §1

[3] = test system: chicken lymphocyte DT40 cells; assay: Clonogenic survival study in the presence of radiation; assay type: cell-based; conditions: compound added about 30 minutes after irradiation, 24 hours
Procedure: Single chicken lymphocyte DT40 cells were irradiated. Thirty minutes later, they were incubated with compound 45488 (also called compound 5253121) for 24 hours. Single cells were then plated (100, 1000, or 10000) in 6-well plates in media. Because DT40 cells are not adherent to plastic surfaces, the media included methylcellulose to provide viscosity. After 7-10 days, the resulting colonies are counted, and survival is reported as a colony-forming ability relative to un-irradiated cells.

[4] = biological target: RecA protein (the bacterial ortholog of RAD51) (Escherichia coli, UniProt P0A7G6); conditions: RecA in place of RAD51
Procedure: RAD51 filament formation can also be studied using oligonucleotides that are end-labeled with a fluorescent tag. Binding of proteins to this substrate DNA can be detected as an increase in anisotropy (or polarization) of the fluorescent tag. […] In this example, this method was modified so that very small sample volumes (30 μl) can be monitored in a high-throughput scale, using 384-well plates and a fluorescent plate reader. […] By varying the amount of substrate DNA, a threshold of approximately 0.1 μM RAD51 protein is required for in vitro filament formation in this system.
A naïve 10,000 compound library of small molecules (Chembridge DIVERSet collection) was screened. A ‘mixed compound’ screening strategy was used, wherein each reaction tested a mixture of 8 compounds.

bacterial RecA = bacterial RecA (Escherichia coli, UniProt P0A7G6)
Chain of bacterial RecA (P0A7G6 whole entry): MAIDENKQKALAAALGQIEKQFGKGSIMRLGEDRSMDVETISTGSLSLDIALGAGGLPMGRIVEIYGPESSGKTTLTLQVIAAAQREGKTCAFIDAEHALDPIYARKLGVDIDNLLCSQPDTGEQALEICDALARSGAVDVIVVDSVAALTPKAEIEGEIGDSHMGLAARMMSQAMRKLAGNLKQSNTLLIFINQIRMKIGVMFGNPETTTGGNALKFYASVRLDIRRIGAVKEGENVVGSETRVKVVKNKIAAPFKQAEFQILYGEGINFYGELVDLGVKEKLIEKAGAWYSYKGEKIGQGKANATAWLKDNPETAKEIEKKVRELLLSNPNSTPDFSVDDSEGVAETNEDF
Procedure: Briefly, 15 μl reaction volumes included a DNA strand exchange protein (0.8 μM) that was pre-incubated for 5 min at 37° C. with 1 μM (nucleotide concentration) ^32P-labeled oligonucleotide in a reaction buffer containing 20 mM Hepes (pH 7.5), 1 mM DTT, 2 mM nucleotide cofactor, and 1 mM MgCl2, and various concentrations of RS-1. For experimental buffer conditions that included calcium, 1 mM CaCl2 was present in addition to (in the case of hRAD51) or in the place of (in the case of RecA and scRAD51) the 1 mM MgCl2. Conditions with scRAD51 additionally contained 110 nM scRAD54. Following this initial binding reaction, 10 μl of 19.75 μM (base pair concentration) supercoiled homolog-containing target plasmid DNA (pRS306) was next added along with sufficient magnesium acetate to give a final concentration of 10 mM. DNA substrates were allowed form a homology dependent association (or ‘D-loop’), and reactions were stopped with SDS and proteinase K. The resulting DNA was separated on 1.3% agarose gels, transferred onto nitrocellulose membranes, analyzed by phosphorimaging, and quantified with ImageJ 1.37v software (NIH).
These experiments were repeated using other recombinase proteins (bacterial RecA and yeast DMC1) in the place of human RAD51.

Chain of RecA protein (the bacterial ortholog of RAD51) (P0A7G6 2-353): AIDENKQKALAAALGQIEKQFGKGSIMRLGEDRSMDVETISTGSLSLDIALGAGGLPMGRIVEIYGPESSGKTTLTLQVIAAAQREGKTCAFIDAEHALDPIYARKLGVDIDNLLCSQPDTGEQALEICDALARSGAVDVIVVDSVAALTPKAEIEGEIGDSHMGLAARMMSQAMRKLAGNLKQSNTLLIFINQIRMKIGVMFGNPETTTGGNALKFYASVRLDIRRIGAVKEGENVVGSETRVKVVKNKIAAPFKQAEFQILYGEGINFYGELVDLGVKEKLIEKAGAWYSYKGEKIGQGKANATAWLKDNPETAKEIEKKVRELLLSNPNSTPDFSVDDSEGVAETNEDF

O=C(Nc1ccc(Br)cc1)c1ccc(Br)c(S(=O)(=O)NCc2ccccc2)c1 [compound 45488]
stability of RAD51 filaments in high salt (human RAD51 [1]; buffers containing high salt concentrations): protects these filaments from buffers containing high salt concentrations; also recorded: stabilizes RAD51 filaments in the presence of high salt concentrations
effect on RAD51 filament formation (human RAD51 [1]; compound at 20 μM): enhances filament formation
effect on RAD51 filament formation (human RAD51 [1]; further study): enhances RAD51 filament formation
joint molecule formation / DNA strand invasion activity of RAD51 (human RAD51 [2]): capable of stimulating DNA strand invasion activity of RAD51; also recorded: concentration dependent increase in joint molecule formation
effect on strand invasion by DMC1 (yeast DMC1): some inhibition
protection of cells from radiation (colony-forming ability) [3]: protects the cells from radiation damage
stimulation of RecA filament formation [4]: no stimulation of filament formation
effect on strand invasion by RecA (bacterial RecA): no effect
